Test results: ChEMBL document CHEMBL1201862, “PubChem BioAssay data set” (2004)
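Where inhibition never reached the appropriate level, the endpoint shown equals the highest concentration tested. Otherwise, values were interpolated linearly from a five-concentration, 48-hour dose response in 96-well plates. At the GI50, growth is halved.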 Activity calls are given as the source filed them. Rule as the data show it: active = GI50 up to about 1.1 µM and inactive = higher.

Assays:
Assay in all cases: DTP human tumour cell line panel, 48 h
[1] = test system: 786-0
[2] = test system: A498
[3] = test system: A549
[4] = test system: ACHN
[5] = test system: CAKI-1
[6] = test system: CCRF-CEM
[7] = test system: COLO 205
[8] = test system: DLD-1
[9] = test system: DMS-114
[10] = test system: DMS-273
[11] = test system: HCC 2998
[12] = test system: HCT-116
[13] = test system: HCT-15
[14] = test system: HL-60
[15] = test system: HOP-18
[16] = test system: HOP-62
[17] = test system: HOP-92
[18] = test system: K562
[19] = test system: KM-20L2
[20] = test system: KM12
[21] = test system: LOX IMVI
[22] = test system: LXFL 529
[23] = test system: M14
[24] = test system: M19-MEL
[25] = test system: MOLT-4
[26] = test system: Malme-3M
[27] = test system: NCI-H226
[28] = test system: NCI-H23
[29] = test system: NCI-H460
[30] = test system: NCI-H522
[31] = test system: OVCAR-3
[32] = test system: OVCAR-4
[33] = test system: OVCAR-5
[34] = test system: OVCAR-8
[35] = test system: RPMI-8226
[36] = test system: SF-539
[37] = test system: SK-MEL-28
[38] = test system: SK-MEL-2
[39] = test system: SK-MEL-5
[40] = test system: SN12C
[41] = test system: SNB-19
[42] = test system: SNB-75
[43] = test system: SR
[44] = test system: SW-620
[45] = test system: TK-10
[46] = test system: U-251
[47] = test system: UACC-257
[48] = test system: UACC-62
[49] = test system: UO-31
[50] = test system: XF498
[51] = test system: EKVX
[52] = test system: HT-29
[53] = test system: IGROV-1
[54] = test system: RXF 393
[55] = test system: SF-268
[56] = test system: SF-295
[57] = test system: SK-OV-3
[58] = test system: SNB-78

Question: How did the GI50 [1] turn out when COc1ccccc1-n1c(N)c2c(C)c(-c3ccccc3)[nH]c2nc1=S was run?
Answer: > 100 µM (inactive)

Question: And the GI50 [2]?
Answer: > 100 µM (inactive)

Question: What about the GI50 [3] of the same compound?
Answer: 5.74 µM (inactive)

Question: What about the GI50 [4] of the same compound?
Answer: > 100 µM (inactive)

Question: And the GI50 [5]?
Answer: > 100 µM (inactive)

Question: What about the GI50 [6] of the same compound?
Answer: > 100 µM (inactive)

Question: And the GI50 [7]?
Answer: > 100 µM (inactive)

Question: What about the GI50 [8] of the same compound?
Answer: > 100 µM (inactive)

Question: What about the GI50 [9] of the same compound?
Answer: > 100 µM (inactive)

Question: And the GI50 [10]?
Answer: > 100 µM (inactive)

Question: And the GI50 [11]?
Answer: > 100 µM (inactive)

Question: What about the GI50 [12] of the same compound?
Answer: > 100 µM (inactive)

Question: And the GI50 [13]?
Answer: > 100 µM

Question: And the GI50 [14]?
Answer: > 100 µM (inactive)

Question: What about the GI50 [15] of the same compound?
Answer: 4.04 µM (inactive)

Question: What about the GI50 [16] of the same compound?
Answer: > 100 µM (inactive)

Question: What about the GI50 [17] of the same compound?
Answer: > 100 µM (inactive)

Question: What about the GI50 [18] of the same compound?
Answer: > 100 µM (inactive)

Question: What about the GI50 [19] of the same compound?
Answer: 18.7 µM (inactive)

Question: And the GI50 [20]?
Answer: > 100 µM (inactive)

Question: And the GI50 [21]?
Answer: > 100 µM (inactive)

Question: And the GI50 [22]?
Answer: > 100 µM (inactive)

Question: And the GI50 [23]?
Answer: > 100 µM (inactive)

Question: And the GI50 [24]?
Answer: > 100 µM (inactive)

Question: And the GI50 [25]?
Answer: > 100 µM (inactive)

Question: What about the GI50 [26] of the same compound?
Answer: 91.8 µM (inactive)

Question: And the GI50 [27]?
Answer: 63 µM (inactive)

Question: And the GI50 [28]?
Answer: 79.4 µM (inactive)

Question: What about the GI50 [29] of the same compound?
Answer: > 100 µM (inactive)

Question: And the GI50 [30]?
Answer: > 100 µM (inactive)

Question: And the GI50 [31]?
Answer: > 100 µM (inactive)

Question: And the GI50 [32]?
Answer: > 100 µM (inactive)

Question: And the GI50 [33]?
Answer: > 100 µM (inactive)

Question: What about the GI50 [34] of the same compound?
Answer: > 100 µM (inactive)

Question: What about the GI50 [35] of the same compound?
Answer: 50.2 µM (inactive)

Question: What about the GI50 [36] of the same compound?
Answer: 33.7 µM (inactive)

Question: What about the GI50 [37] of the same compound?
Answer: > 100 µM (inactive)

Question: And the GI50 [38]?
Answer: > 100 µM (inactive)

Question: And the GI50 [39]?
Answer: 4.76 µM (inactive)

Question: And the GI50 [40]?
Answer: > 100 µM (inactive)

Question: And the GI50 [41]?
Answer: > 100 µM (inactive)

Question: What about the GI50 [42] of the same compound?
Answer: 59.3 µM (inactive)

Question: What about the GI50 [43] of the same compound?
Answer: > 100 µM (inactive)

Question: What about the GI50 [44] of the same compound?
Answer: > 100 µM (inactive)

Question: What about the GI50 [45] of the same compound?
Answer: > 100 µM (inactive)

Question: What about the GI50 [46] of the same compound?
Answer: 54.3 µM (inactive)

Question: And the GI50 [47]?
Answer: > 100 µM (inactive)

Question: And the GI50 [48]?
Answer: 77.1 µM (inactive)

Question: What about the GI50 [49] of the same compound?
Answer: > 100 µM (inactive)

Question: What about the GI50 [50] of the same compound?
Answer: > 100 µM (inactive)

Question: Which GI50 [1] does the source give for Cc1cc(=O)cc2sc3cc(Cl)ccc3nc1-2 here?
Answer: 12 µM (inactive)

Question: What about the GI50 [2] of the same compound?
Answer: 19.9 µM (inactive)

Question: What about the GI50 [3] of the same compound?
Answer: 4.49 µM (inactive)

Question: What about the GI50 [4] of the same compound?
Answer: 6.04 µM (inactive)

Question: And the GI50 [5]?
Answer: 19.7 µM (inactive)

Question: And the GI50 [6]?
Answer: 1.39 µM (inactive)

Question: And the GI50 [7]?
Answer: 22.3 µM (inactive)

Question: What about the GI50 [8] of the same compound?
Answer: 6.49 µM (inactive)

Question: And the GI50 [10]?
Answer: 6.17 µM (inactive)

Question: What about the GI50 [51] of the same compound?
Answer: 4.72 µM (inactive)

Question: And the GI50 [11]?
Answer: 10.5 µM (inactive)

Question: And the GI50 [12]?
Answer: 9.42 µM (inactive)

Question: What about the GI50 [13] of the same compound?
Answer: 3.95 µM

Question: And the GI50 [14]?
Answer: 2.66 µM (inactive)

Question: What about the GI50 [15] of the same compound?
Answer: 48.1 µM (inactive)

Question: What about the GI50 [16] of the same compound?
Answer: 15.6 µM (inactive)

Question: And the GI50 [17]?
Answer: 22.3 µM (inactive)

Question: And the GI50 [52]?
Answer: 20.3 µM (inactive)

Question: And the GI50 [53]?
Answer: 12.1 µM (inactive)

Question: And the GI50 [18]?
Answer: 4.09 µM (inactive)

Question: And the GI50 [19]?
Answer: 17.4 µM (inactive)

Question: What about the GI50 [20] of the same compound?
Answer: 4.5 µM (inactive)

Question: And the GI50 [21]?
Answer: 11.9 µM (inactive)

Question: And the GI50 [22]?
Answer: 15.2 µM (inactive)

Question: What about the GI50 [23] of the same compound?
Answer: 4.4 µM (inactive)

Question: What about the GI50 [24] of the same compound?
Answer: 16.3 µM (inactive)

Question: What about the GI50 [25] of the same compound?
Answer: 12.6 µM (inactive)

Question: What about the GI50 [26] of the same compound?
Answer: 11.5 µM (inactive)

Question: And the GI50 [27]?
Answer: 25.4 µM (inactive)

Question: And the GI50 [28]?
Answer: 13.7 µM (inactive)

Question: What about the GI50 [29] of the same compound?
Answer: 7.55 µM (inactive)

Question: What about the GI50 [30] of the same compound?
Answer: 2.54 µM (inactive)

Question: And the GI50 [31]?
Answer: 8.89 µM (inactive)

Question: What about the GI50 [32] of the same compound?
Answer: 22.2 µM (inactive)

Question: And the GI50 [33]?
Answer: 21.1 µM (inactive)

Question: What about the GI50 [34] of the same compound?
Answer: 8.99 µM (inactive)

Question: And the GI50 [35]?
Answer: 5.87 µM (inactive)

Question: And the GI50 [54]?
Answer: 4.76 µM (inactive)

Question: What about the GI50 [55] of the same compound?
Answer: 6.84 µM (inactive)

Question: And the GI50 [56]?
Answer: 6.5 µM (inactive)

Question: What about the GI50 [36] of the same compound?
Answer: 7.66 µM (inactive)

Question: And the GI50 [37]?
Answer: 17.8 µM (inactive)

Question: And the GI50 [38]?
Answer: 7.01 µM (inactive)

Question: And the GI50 [39]?
Answer: 3.65 µM (inactive)

Question: And the GI50 [57]?
Answer: 20.7 µM (inactive)

Question: What about the GI50 [40] of the same compound?
Answer: 7.45 µM (inactive)

Question: What about the GI50 [41] of the same compound?
Answer: 5.93 µM (inactive)

Question: What about the GI50 [42] of the same compound?
Answer: 3.24 µM (inactive)

Question: And the GI50 [58]?
Answer: 17 µM (inactive)

Question: What about the GI50 [43] of the same compound?
Answer: 3.07 µM (inactive)

Question: And the GI50 [44]?
Answer: 6.9 µM (inactive)

Question: What about the GI50 [45] of the same compound?
Answer: 25.4 µM (inactive)

Question: And the GI50 [46]?
Answer: 6.53 µM (inactive)

Question: What about the GI50 [47] of the same compound?
Answer: 16.9 µM (inactive)

Question: And the GI50 [48]?
Answer: 6.84 µM (inactive)

Question: What about the GI50 [49] of the same compound?
Answer: 13.7 µM (inactive)

Question: What about the GI50 [50] of the same compound?
Answer: 4.28 µM (inactive)
